“Also recorded” adds a separate entry of the source. No end group written: not given here.

Experiment [1] has as its system BaF/3 cells transfected with the EGFR (BaF/3-EGFR). Kind of experiment: Activatory ligand stimulated mitogenesis assay. In kind it is cell-based. The following applies: for potentiation of mitogenesis of BaF/3-EGFR cells: titrating concentrations of variant ligand, preliminary results, data not shown. How it is done: BaF/3 cells transfected with the EGFR (BaF/3-EGFR; Walker et al, Growth Factors 16: 53-67, 1998) are washed three times to remove residual IL-3 and resuspended in RPMI 1640+10% FCS. Cells are then seeded into 96 well plates using a Biomek 2000 (Beckman) at 2×10^4 cells per 200 microlitres and incubated for 4 h at 37 C in 10% CO2. To determine the efficacy of this system with a positive control, cells are first grown with titrating concentrations of activatory ligand EGF alone, to determine the minimum amount of ligand required to achieve maximal or sub-maximal receptor-mediated mitogenesis for these cells. […] Titrating concentrations of ErbB variant ligands are added to the cells to test their mitogenic potential. In a similar manner, BaF/3 or different cells expressing a range of ErbB receptors, rendering them mitogenically responsive to ErbB ligand stimulation, are used to test these and other variant ligands for activatory ligand stimulated mitogenesis (exemplified in Harari et. al., 1999).

Experiment [2] deals with soluble ErbB1 (soluble EGFR amino acids 1-501 and 1-621). The experiment can be described thus: BIAcore receptor binding assay, immobilized soluble EGFR. Conditions: peptide up to 10 uM; BIAcore 3000, CM-5 chip; data not shown. The procedure:
(§1) Biosensor analyses were performed using a BIAcore™ 3000. A CM-5 (research grade) sensor chip was immobilized with soluble EGFR (amino acids 1-501), soluble EGFR (amino acids 1-621) and soluble ErbB2 (amino acids 1-509) on flowcells 2, 3 and 4, respectively. Immobilizations were performed using amine coupling chemistry in 10 mM Sodium Acetate at pH 4.2. Varying concentrations (1.25 μM, 2.5 μM, 5 μM and 10 μM) of peptides were injected (30 μl) over the sensor surfaces in HBS running buffer (10 mM HEPES, 3.4 mM EDTA, 0.15M NaCl, 0.005% Tween 20, pH 7.4) at a flow rate of 5 μl/min. The surfaces were then regenerated by injecting 10 μl of 10 mM NaOH at a flow rate of 20 μl/min. The resulting sensor curves were subtracted against the blank channel (Flowcell 1) to yield the specific response.
A general note: In SPR one partner is held on a chip, and binding of the other changes the refractive index at the surface.

In experiment [3] the target is T1, soluble ErbB2 (amino acids 1-509) (Homo sapiens, UniProt P04626).
T1 construct: soluble ErbB2 (amino acids 1-509)
The experiment can be described thus: BIAcore receptor binding assay, immobilized soluble ErbB2. The following applies: peptide up to 10 uM; BIAcore 3000, CM-5 chip; data not shown. How it is done: as §1

Experiment [4] concerns Betacellulin. The experiment can be described thus: BIAcore ligand-ligand interaction, immobilized Betacellulin. The format is binding, human or bovine. Conditions: peptide 0.3-10 μM (in some cases 50 μM); BIAcore 3000, blank channel subtracted; FIG. 6. How it is done: Biosensor analyses were performed using a BIAcore™ 3000. A CM-5 (research grade) sensor chip was immobilized with recombinant human or bovine EGF, TGF alpha and Betacellulin on flowcells 2, 3 and 4, respectively. Immobilizations were performed using amine coupling chemistry in 10 mM Sodium Acetate at pH 4.2. Varying concentrations (0.3 μM, 0.6 μM, 1.25 μM, 2.5 μM, 5 μM, 10 μM [and in some cases 50 μM]) of hNRG2(1-32), mEGF(1-32) & hEGF(1-32) were injected (30 μl) over the sensor surfaces in HBS running buffer (10 mM HEPES, 3.4 mM EDTA, 0.15M NaCl, 0.005% Tween 20, pH 7.4) at a flow rate of 5 μl/min. The surfaces were then regenerated by injecting 10 μl of 10 mM NaOH at a flow rate of 20 μl/min. The resulting sensor curves were subtracted against the blank channel (Flowcell 1) to yield the specific response.

With “EGF: activatory ligand EGF purified from mouse salivary glands, positive control (NSYPGCPSSYDGYCLNGGVCMHIESLDSYTCNCVIGYSGDRCQTRDLRWWELR; Epidermal growth factor; UniProt P01132 977-1029, looked up) [reference compound]”, in experiment [1] (positive control at a concentration of approximately 200 μM), the “mitogenic response of BaF/3-EGFR cells” value is given as “sub-maximal to maximal mitogenic response”.

As to “GHARKCNETAKSYCVNGGVCYYIEGINQLSCK-OH (also: air-oxidised refolding, disulfide pairing not given here) [hNRG2(1-32)]”, in experiment [1], the “potentiation of mitogenesis of BaF/3-EGFR cells” value is on record as “do not potentiate mitogenesis”. Moreover, the “binding to immobilized soluble ErbB1” value in experiment [2] is recorded as “failed to demonstrate measurable binding”. The “binding to immobilized soluble ErbB2” value in experiment [3] was “failed to demonstrate measurable binding”. Besides, the “binding to immobilized Betacellulin” value in experiment [4] is on record as “weak binding; also recorded: low affinity interaction”.

As to “NSDSECPLSHDGYCLHDGVCMYIEALDKYACK-OH (not fully specified; C-terminal free acid) [hEGF(1-32)]”, the “binding to immobilized Betacellulin” value in experiment [4] is “no binding”.

Regarding “NSYPGCPSSYDGYCLNGGVCMHIESLDSYTCK-OH (C-terminal free acid) [mEGF(1-32)]”, the “potentiation of mitogenesis of BaF/3-EGFR cells” value in experiment [1] is on record as “do not potentiate mitogenesis”. In addition, in experiment [2], the “binding to immobilized soluble ErbB1” value was “failed to demonstrate measurable binding”. The “binding to immobilized soluble ErbB2” value in experiment [3] was “failed to demonstrate measurable binding”. The “binding to immobilized Betacellulin” value in experiment [4] is listed as “weak binding; also recorded: low affinity interaction”.

The record behind these values is patent US20090131308A1, “Splice Variants of ErbB Ligands, Compositions and Uses Thereof” (AGOS BIOTECH LTD., priority 2003, published 2009).
